Entries after “also recorded” stand apart in the source; their conditions may differ.
Biological target: HBHA110–199 (Mycobacterium tuberculosis, UniProt P9WIP9)
Experiment: ITC binding of HS hexadecasaccharides with HBHA110–199
Conditions: for n (sugar-to-protein binding ratio) / ΔG / ΔH / –TΔS: 25 °C, Tris buffer pH 7.6; for Kd / dissociation constant, KD: Tris buffer pH 7.6, 25 °C, two trials, average ± standard deviation; for Kd: read-out: dissociation constant, KD

HBHA110–199, sequence (P9WIP9 110-199): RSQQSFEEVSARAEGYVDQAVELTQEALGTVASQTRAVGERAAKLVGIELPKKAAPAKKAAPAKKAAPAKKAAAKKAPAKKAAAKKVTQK

SMILES | n (sugar-to-protein binding ratio) | ΔG | ΔH | –TΔS | Kd | dissociation constant, KD
O=C(O)[C@@H]1O[C@@H](O[C@H]2[C@H](O)[C@@H](NS(=O)(=O)O)[C@@H](O[C@H]3[C@H](O)[C@@H](O)[C@H]4OC[C@@H]3O4)O[C@@H]2CO)[C@H](O)[C@@H](O)[C@@H]1O[C@H]1O[C@H](CO)[C@@H](O[C@@H]2O[C@@H](C(=O)O)[C@@H](O[C@H]3O[C@H](CO)[C@@H](O[C@@H]4O[C@@H](C(=O)O)[C@@H](O[C@H]5O[C@H](CO)[C@@H](O[C@@H]6O[C@@H](C(=O)O)[C@@H](O[C@H]7O[C@H](CO)[C@@H](O[C@@H]8O[C@@H](C(=O)O)[C@@H](O[C@H]9O[C@H](CO)[C@@H](O[C@@H]%10O[C@@H](C(=O)O)[C@@H](O[C@H]%11O[C@H](CO)[C@@H](O[C@@H]%12O[C@@H](C(=O)O)[C@@H](O[C@H]%13O[C@H](CO)[C@@H](O)[C@H](O)[C@H]%13NS(=O)(=O)O)[C@H](O)[C@H]%12O)[C@H](O)[C@H]%11NS(=O)(=O)O)[C@H](O)[C@H]%10O)[C@H](O)[C@H]9NS(=O)(=O)O)[C@H](O)[C@H]8O)[C@H](O)[C@H]7NS(=O)(=O)O)[C@H](O)[C@H]6O)[C@H](O)[C@H]5NS(=O)(=O)O)[C@H](O)[C@H]4O)[C@H](O)[C@H]3NS(=O)(=O)O)[C@H](O)[C@H]2O)[C@H](O)[C@H]1NS(=O)(=O)O [compound 21] | 0.23 ± 0.10 | –6.55 ± 0.06 kcal/mol | 7.76 ± 4.02 kcal/mol | –14.30 ± 3.96 kcal/mol | 16 ± 1.5 µM | 
CC(=O)N[C@H]1[C@@H](O[C@H]2[C@H](O)[C@@H](OS(=O)(=O)O)[C@H]3OC[C@@H]2O3)O[C@H](COS(=O)(=O)O)[C@@H](O[C@@H]2O[C@@H](C(=O)O)[C@@H](O[C@H]3O[C@H](COS(=O)(=O)O)[C@@H](O[C@@H]4O[C@@H](C(=O)O)[C@@H](O[C@H]5O[C@H](COS(=O)(=O)O)[C@@H](O[C@@H]6O[C@@H](C(=O)O)[C@@H](O[C@H]7O[C@H](COS(=O)(=O)O)[C@@H](O[C@@H]8O[C@@H](C(=O)O)[C@@H](O[C@H]9O[C@H](COS(=O)(=O)O)[C@@H](O[C@@H]%10O[C@@H](C(=O)O)[C@@H](O[C@H]%11O[C@H](COS(=O)(=O)O)[C@@H](O[C@@H]%12O[C@@H](C(=O)O)[C@@H](O[C@H]%13O[C@H](COS(=O)(=O)O)[C@@H](O[C@@H]%14O[C@@H](C(=O)O)[C@@H](O[C@H]%15O[C@H](COS(=O)(=O)O)[C@@H](O)[C@H](O)[C@H]%15NC(C)=O)[C@H](O)[C@H]%14OS(=O)(=O)O)[C@H](O)[C@H]%13NC(C)=O)[C@H](O)[C@H]%12OS(=O)(=O)O)[C@H](O)[C@H]%11NC(C)=O)[C@H](O)[C@H]%10OS(=O)(=O)O)[C@H](O)[C@H]9NC(C)=O)[C@H](O)[C@H]8OS(=O)(=O)O)[C@H](O)[C@H]7NC(C)=O)[C@H](O)[C@H]6OS(=O)(=O)O)[C@H](O)[C@H]5NC(C)=O)[C@H](O)[C@H]4OS(=O)(=O)O)[C@H](O)[C@H]3NC(C)=O)[C@H](O)[C@H]2OS(=O)(=O)O)[C@@H]1O [compound 23] | 0.27 ± 0.01 | –7.62 ± 0.02 kcal/mol | 15.00 ± 0.00 kcal/mol | –22.60 ± 0.00 kcal/mol | 2.63 ± 0.11 µM | 
CC(=O)N[C@H]1[C@@H](O[C@H]2[C@H](O)[C@@H](OS(=O)(=O)O)[C@H]3OC[C@@H]2O3)O[C@H](CO)[C@@H](O[C@@H]2O[C@@H](C(=O)O)[C@@H](O[C@H]3O[C@H](CO)[C@@H](O[C@@H]4O[C@@H](C(=O)O)[C@@H](O[C@H]5O[C@H](CO)[C@@H](O[C@@H]6O[C@@H](C(=O)O)[C@@H](O[C@H]7O[C@H](CO)[C@@H](O[C@@H]8O[C@@H](C(=O)O)[C@@H](O[C@H]9O[C@H](CO)[C@@H](O[C@@H]%10O[C@@H](C(=O)O)[C@@H](O[C@H]%11O[C@H](CO)[C@@H](O[C@@H]%12O[C@@H](C(=O)O)[C@@H](O[C@H]%13O[C@H](CO)[C@@H](O[C@@H]%14O[C@@H](C(=O)O)[C@@H](O[C@H]%15O[C@H](CO)[C@@H](O)[C@H](O)[C@H]%15NC(C)=O)[C@H](O)[C@H]%14OS(=O)(=O)O)[C@H](O)[C@H]%13NC(C)=O)[C@H](O)[C@H]%12OS(=O)(=O)O)[C@H](O)[C@H]%11NC(C)=O)[C@H](O)[C@H]%10OS(=O)(=O)O)[C@H](O)[C@H]9NC(C)=O)[C@H](O)[C@H]8OS(=O)(=O)O)[C@H](O)[C@H]7NC(C)=O)[C@H](O)[C@H]6OS(=O)(=O)O)[C@H](O)[C@H]5NC(C)=O)[C@H](O)[C@H]4OS(=O)(=O)O)[C@H](O)[C@H]3NC(C)=O)[C@H](O)[C@H]2OS(=O)(=O)O)[C@@H]1O [compound 26] |  |  |  |  |  | no detectable binding; also recorded: no binding detected
O=C(O)[C@@H]1O[C@@H](O[C@H]2[C@H](O)[C@@H](NS(=O)(=O)O)[C@@H](O[C@H]3[C@H](O)[C@@H](OS(=O)(=O)O)[C@H]4OC[C@@H]3O4)O[C@@H]2CO)[C@H](OS(=O)(=O)O)[C@@H](O)[C@@H]1O[C@H]1O[C@H](CO)[C@@H](O[C@@H]2O[C@@H](C(=O)O)[C@@H](O[C@H]3O[C@H](CO)[C@@H](O[C@@H]4O[C@@H](C(=O)O)[C@@H](O[C@H]5O[C@H](CO)[C@@H](O[C@@H]6O[C@@H](C(=O)O)[C@@H](O[C@H]7O[C@H](CO)[C@@H](O[C@@H]8O[C@@H](C(=O)O)[C@@H](O[C@H]9O[C@H](CO)[C@@H](O[C@@H]%10O[C@@H](C(=O)O)[C@@H](O[C@H]%11O[C@H](CO)[C@@H](O[C@@H]%12O[C@@H](C(=O)O)[C@@H](O[C@H]%13O[C@H](CO)[C@@H](O)[C@H](O)[C@H]%13NS(=O)(=O)O)[C@H](O)[C@H]%12OS(=O)(=O)O)[C@H](O)[C@H]%11NS(=O)(=O)O)[C@H](O)[C@H]%10OS(=O)(=O)O)[C@H](O)[C@H]9NS(=O)(=O)O)[C@H](O)[C@H]8OS(=O)(=O)O)[C@H](O)[C@H]7NS(=O)(=O)O)[C@H](O)[C@H]6OS(=O)(=O)O)[C@H](O)[C@H]5NS(=O)(=O)O)[C@H](O)[C@H]4OS(=O)(=O)O)[C@H](O)[C@H]3NS(=O)(=O)O)[C@H](O)[C@H]2OS(=O)(=O)O)[C@H](O)[C@H]1NS(=O)(=O)O [compound 27] |  |  |  |  |  | no detectable binding; also recorded: no binding detected
CC(=O)N[C@H]1[C@@H](O[C@H]2[C@H](O)[C@@H](O)[C@H]3OC[C@@H]2O3)O[C@H](COS(=O)(=O)O)[C@@H](O[C@@H]2O[C@@H](C(=O)O)[C@@H](O[C@H]3O[C@H](COS(=O)(=O)O)[C@@H](O[C@@H]4O[C@@H](C(=O)O)[C@@H](O[C@H]5O[C@H](COS(=O)(=O)O)[C@@H](O[C@@H]6O[C@@H](C(=O)O)[C@@H](O[C@H]7O[C@H](COS(=O)(=O)O)[C@@H](O[C@@H]8O[C@@H](C(=O)O)[C@@H](O[C@H]9O[C@H](COS(=O)(=O)O)[C@@H](O[C@@H]%10O[C@@H](C(=O)O)[C@@H](O[C@H]%11O[C@H](COS(=O)(=O)O)[C@@H](O[C@@H]%12O[C@@H](C(=O)O)[C@@H](O[C@H]%13O[C@H](COS(=O)(=O)O)[C@@H](O[C@@H]%14O[C@@H](C(=O)O)[C@@H](O[C@H]%15O[C@H](COS(=O)(=O)O)[C@@H](O)[C@H](O)[C@H]%15NC(C)=O)[C@H](O)[C@H]%14O)[C@H](O)[C@H]%13NC(C)=O)[C@H](O)[C@H]%12O)[C@H](O)[C@H]%11NC(C)=O)[C@H](O)[C@H]%10O)[C@H](O)[C@H]9NC(C)=O)[C@H](O)[C@H]8O)[C@H](O)[C@H]7NC(C)=O)[C@H](O)[C@H]6O)[C@H](O)[C@H]5NC(C)=O)[C@H](O)[C@H]4O)[C@H](O)[C@H]3NC(C)=O)[C@H](O)[C@H]2O)[C@@H]1O [compound 31] |  |  |  |  |  | no detectable binding; also recorded: no binding detected

From publication PMC12814364 (Journal of the American Chemical Society, 2025)
